Assays:
[1] = test system: Salmonella Typhimurium ATCC 14028; test: Antibacterial activity: growth inhibition, OD600 after 24 h (GIC50); type: cell-based; conditions: 25° C.
Method: Evaluation of antibacterial-inhibitory activity of some substituted 2-amino-1H-imidazoles of the invention was carried out by diluting an overnight culture of Salmonella Typhimurium ATCC 14028 into a liquid medium. 200 μl of the diluted overnight culture was added to each well of a microtiter plate together with different concentrations of the test compound (1/2 dilution series of the compound). After an incubation of 24 hours the optical density at 600 nm of each well was determined with a microtiter plate reader.
Starting from a 40 mM stock solution of each compound in DMSO, two-fold serial dilutions in 100 μl liquid broth per well were prepared in dublicate in sterile transparant microtiter plates. The broth used was TSB 1/20 for measurements at 25° C. and CFA (in case of Salmonella Typhimurium) and LBNS (in case of Pseudomonas aeruginosa) for measurements at 37° C. Subsequently an overnight culture of the bacteria (S. Typhimurium ATCC14028 or P. aeruginosa PA14) was diluted 1/200 into the corresponding liquid broth and 100 μl was added to each well of the microtiterplate resulting in a total amout of 200 μl medium per well. After an incubation of 24 hours the optical density at 600 nm of each well was determined with a microtiter plate reader (VERSAmax, Molecular Devices).
Evaluation of antibacterial-inhibitory activity of some substituted imidazo[1,2-a]pyrimidinium bromide salts of the invention was carried out by diluting an overnight culture of Salmonella Typhimurium ATCC14028 or Pseudomonas aeruginosa PA141/200 into liquid medium. 200 μl of the diluted overnight culture was added to each well of a microtiterplate together with different concentrations of the test compound (1/2 dilution series of the compound). After an incubation of 24 hours the optical density at 600 nm of each well was determined with a microtiter plate reader.

S. Typhimurium ATCC14028 [2] = test: Static peg assay for prevention of biofilm formation (Calgary device, crystal violet); type: cell-based, Salmonella Typhimurium
Method in brief: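 Calgary 96-peg device, ca. 10^6 cells of ATCC14028 per well in TSB 1/20 for 24 h at 25° C (or 48 h at 16° C, medium and compound renewed at 24 h), or in CFA broth for 24 h at 37° C, static, with two-fold compound dilutions. Crystal violet stain, acetic acid extraction, OD570. IC50 from 2–3 independent experiments.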

S. Typhimurium ATCC14028 [3] = test: Bioscreen assay: influence on planktonic growth curve; type: cell-based, Salmonella Typhimurium; conditions: 400 μM
Text: (§1) Some of the tested compounds show a concentration range in which biofilm formation is inhibited but no effect on planktonic growth is observed. These compounds are particularly interesting for prevention of biofilm formation since the development of resistance against these compounds is less likely. Table 8 indicates whether the different compounds have an effect on the planktonic growth of the bacteria at the IC50 for biofilm inhibition. To construct Table 8, the effect of the tested compounds on the growth curve of the bacteria was determined at a concentration equal to the IC50 for biofilm inhibition, by using the Bioscreen system available from Oy Growth Curves Ab Ltd). The Bioscreen device from Oy Growth Curves Ab Ltd was used for measuring the influence of the chemical compounds on the planktonic growth of Salmonella Typhimurium and Pseudomonas aeruginosa. The Bioscreen is a computer controlled incubator/reader/shaker that uses 10×10 well microtiter plates and measures light absorbance of each well at a specified wave length in function of time. An overnight culture of S. […] The broth used was TSB 1/20 for the experiments at 16° C. and 25° C. For experiments at 37° C. CFA medium was used for S. […] As a control 3 μl of the appropriate solvent (DMSO or EtOH) was also added to the plate in 3- or 4-fold. The microtiter plate was incubated in the Bioscreen device at 16° C., 25° C. or 37° C. for at least 36 hours, with continious medium shaking. The absorbance of each well was measured at 600 nm each 15 minutes. Excel was used to generate the growth curves for treated the treated wells and the untreated control wells. Some of the compounds show a concentration range in which biofilm formation is inhibited but no effect on the planktonic growth is observed. Table 14 indicates if the different compounds have an effect on the planktonic growth of the bacteria at the IC50 for biofilm inhibition. To construct this table the effect of the compounds on the growth curve of the bacteria was determined at a concentration equal to the IC50 for biofilm inhibtion, by using the Bioscreen system from Oy Growth Curves Ab Ltd.

S. Typhimurium ATCC14028 [4] = test: as above; type: cell-based, Salmonella Typhimurium; design: key: x: no influence on planktonic growth at the IC50 for biofilm inhibition; planktonic growth is retarded at the IC50 for biofilm inhibition; conditions: planktonic growth at the IC50 for biofilm inhibition, 25° C.
Text: as §1, with “Table 14 indicates if the different compounds have an effect on the planktonic growth of the bacteria at the IC50 for biofilm inhibition.” left out

S. Typhimurium SL1344 [5] = test: Static peg assay for prevention of biofilm formation (Calgary device, crystal violet); type: cell-based; conditions: Salmonella enterica, SL1344, 16° C., read-out: IC50 biofilm inhibition
Method: After an incubation period of 24 hours at 25° C. or 37° C. or 48 hours at 16° C. the biofilms were visualized by crystal violet staining. […] Biofilm formation assays were carried out at 16° C., 25° C. and 37° C. […] Subsequently, an overnight culture of S. […] The pegged lid was placed on the microtiter plate and the plate was incubated for 48 hours at 16° C. or for 24 hours at 25° C. without shaking. During this incubation period biofilms were formed on the surface of the pegs. In case of the assay at 16° C., after 24 hours the lid was transferred into a new plate with medium and the specific molecules used for testing. […] The remaining attached bacteria were stained for 30 minutes with 200 μl 0.1% (w/v) crystal violet in an isopropanol/methanol/PBS solution (v/v 1:1:18). Excess stain was rinsed off by placing the pegs in a 96-well plate filled with 200 μl distilled water per well. After the pegs were air dried (30 min), the dye bound to the adherent cells was extracted with 30% glacial acetic acid (200 μl). The OD570 of each well was measured using the VERSAmax microtiter plate reader.

S. Typhimurium ATCC14028 [6] = test: Growth inhibition of planktonic cells in the peg assay plate (OD600); type: cell-based, Salmonella Typhimurium; conditions: Salmonella enterica, ATCC14028, 16° C.
S. Typhimurium SL1344 [7] = test: as above; type: cell-based; conditions: Salmonella enterica, SL1344, 16° C.
[8] = Salmonella enterica, ATCC14028, 16° C., read-out: IC50 biofilm inhibition

## OC1(c2ccc(F)cc2)C[n+]2cccnc2N1Cc1ccc2c(c1)OCO2.[Br-] (stereo not drawn) [Compound 79]
[1]
  IC50: 200 µM
S. Typhimurium ATCC14028 [2]; 25° C., Table 11, read-out: IC50 (biofilm formation)
  IC50: 29.4 µM
S. Typhimurium ATCC14028 [2]; 25° C., Table 14, read-out: IC50 biofilm inhibition
  IC50: 29.4 µM
S. Typhimurium ATCC14028 [2]; 25° C., Table 19, read-out: IC50 (biofilm formation)
  IC50: 17.2 µM
S. Typhimurium ATCC14028 [3]
  Effect on growth at 400 μM: ∘
S. Typhimurium ATCC14028 [4]
  Influence on growth: ∘

## O=[N+]([O-])c1cccc(C2(O)C[n+]3cccnc3N2C2CCCCCCCCCCC2)c1.[Br-] (stereo not drawn) [R1=Cyclododecyl, R3=3-NO2Ph, R4=H, 1-cyclododecyl-2-hydroxy-2-(3-nitrophenyl)-2,3-dihydro-1H-imidazo[1,2-a]pyrimidin-4-ium bromide]
[1]; Salmonella enterica
  IC50: 6 to 12 µM
S. Typhimurium ATCC14028 [2]; Salmonella enterica, 25° C., Table 11, read-out: IC50 (biofilm formation)
  IC50: < 6.25 µM
S. Typhimurium ATCC14028 [2]; Salmonella enterica, 25° C., Table 14, read-out: IC50 biofilm inhibition
  IC50: < 6.25 µM
S. Typhimurium ATCC14028 [4]
  Influence on growth: ∘

## c1ccc(Sc2cccc3ccccc23)c(CNC2=NCCN2)c1 [Specs3-4]
S. Typhimurium ATCC14028 [2]; [8]
  IC50: 16.6 µM
S. Typhimurium SL1344 [5]
  IC50: 15.5 µM
S. Typhimurium ATCC14028 [6]
  IC50: 82.6 µM
S. Typhimurium SL1344 [7]
  IC50: 82.6 µM

## Fc1ccc(Sc2ccccc2CNC2=NCCN2)cc1 [Specs3]
S. Typhimurium ATCC14028 [2]; [8]
  IC50: 21.9 µM
S. Typhimurium SL1344 [5]
  IC50: ~31.8 µM
S. Typhimurium ATCC14028 [6]
  IC50: 283 µM
S. Typhimurium SL1344 [7]
  IC50: 283 µM

Reference: patent publication US20130029981A1, “COMPOUNDS, COMPOSITIONS, AND METHODS FOR CONTROLLING BIOFILMS” (Katholieke Universiteit Leuven, priority 2009, published 2013)
